{"source": "patent US20240336642A1", "about": "(The General Hospital Corporation, priority 2021, published 2024)", "key": {"h12/15-LOX": {"target": "h12/15-LOX (Homo sapiens (Human), UniProt P16050)", "sequence (P16050 whole entry)": "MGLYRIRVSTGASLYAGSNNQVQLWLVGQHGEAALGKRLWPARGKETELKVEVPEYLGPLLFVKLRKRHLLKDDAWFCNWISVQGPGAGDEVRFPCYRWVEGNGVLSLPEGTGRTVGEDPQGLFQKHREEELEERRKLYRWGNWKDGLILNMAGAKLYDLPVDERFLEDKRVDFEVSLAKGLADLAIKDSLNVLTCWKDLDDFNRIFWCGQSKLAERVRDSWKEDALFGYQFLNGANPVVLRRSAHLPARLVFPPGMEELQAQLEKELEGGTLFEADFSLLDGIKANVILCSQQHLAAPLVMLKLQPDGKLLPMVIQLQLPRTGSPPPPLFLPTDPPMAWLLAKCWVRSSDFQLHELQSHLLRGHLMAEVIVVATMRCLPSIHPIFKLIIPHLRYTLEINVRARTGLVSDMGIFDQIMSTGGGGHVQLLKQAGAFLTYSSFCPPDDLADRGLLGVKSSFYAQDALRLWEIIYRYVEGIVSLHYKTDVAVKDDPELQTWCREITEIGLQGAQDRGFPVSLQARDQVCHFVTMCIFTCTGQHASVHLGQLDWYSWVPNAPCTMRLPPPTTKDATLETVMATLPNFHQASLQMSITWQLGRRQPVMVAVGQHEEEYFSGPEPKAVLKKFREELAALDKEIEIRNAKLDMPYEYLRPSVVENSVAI", "assay": "12/15-LOX enzyme inhibition IC50 assay (Examples 1 and 2)", "format": "biochemical", "protocol": "Enzyme was then added to the cuvettes. […] The % inhibition for each test compound concentration were calculated as follows: […]"}, "[1]": {"assay": "Aqueous solubility of exemplified compounds (Example 3)", "format": "physicochemical", "conditions": "aqueous solubility"}, "[2]": {"assay": "Metabolic stability of exemplified compounds (Example 4)", "format": "in vitro ADME"}, "Mouse 12/15-LOX E. coli": {"target": "Mouse 12/15-LOX E. coli (Mus musculus (Mouse), UniProt P39654)", "sequence (P39654 whole entry)": "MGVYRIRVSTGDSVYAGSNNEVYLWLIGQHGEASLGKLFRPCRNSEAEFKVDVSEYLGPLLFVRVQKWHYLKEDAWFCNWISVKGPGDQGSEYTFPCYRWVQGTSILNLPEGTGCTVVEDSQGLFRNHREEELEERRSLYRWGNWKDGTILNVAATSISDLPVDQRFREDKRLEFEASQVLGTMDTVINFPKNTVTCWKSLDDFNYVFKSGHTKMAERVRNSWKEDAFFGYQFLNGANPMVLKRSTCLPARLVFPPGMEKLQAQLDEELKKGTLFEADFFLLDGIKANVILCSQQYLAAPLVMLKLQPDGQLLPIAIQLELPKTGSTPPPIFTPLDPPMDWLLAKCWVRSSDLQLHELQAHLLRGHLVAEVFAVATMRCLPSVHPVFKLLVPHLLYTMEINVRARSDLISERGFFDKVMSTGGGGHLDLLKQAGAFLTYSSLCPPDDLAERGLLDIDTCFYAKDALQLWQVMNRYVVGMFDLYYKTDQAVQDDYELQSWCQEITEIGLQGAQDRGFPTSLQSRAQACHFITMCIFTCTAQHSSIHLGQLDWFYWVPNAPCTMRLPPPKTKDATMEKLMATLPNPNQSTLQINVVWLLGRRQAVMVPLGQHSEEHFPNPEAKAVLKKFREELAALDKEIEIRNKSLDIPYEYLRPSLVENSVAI", "assay": "Mouse 12/15-LOX E. coli IC50", "format": "biochemical"}, "Rat Primary Neuron": {"system": "Rat Primary Neuron", "assay": "Rat Primary Neuron EC50", "format": "cell-based"}, "12-LOX": {"target": "12-LOX (Homo sapiens (Human), UniProt P18054)", "sequence (P18054 whole entry)": "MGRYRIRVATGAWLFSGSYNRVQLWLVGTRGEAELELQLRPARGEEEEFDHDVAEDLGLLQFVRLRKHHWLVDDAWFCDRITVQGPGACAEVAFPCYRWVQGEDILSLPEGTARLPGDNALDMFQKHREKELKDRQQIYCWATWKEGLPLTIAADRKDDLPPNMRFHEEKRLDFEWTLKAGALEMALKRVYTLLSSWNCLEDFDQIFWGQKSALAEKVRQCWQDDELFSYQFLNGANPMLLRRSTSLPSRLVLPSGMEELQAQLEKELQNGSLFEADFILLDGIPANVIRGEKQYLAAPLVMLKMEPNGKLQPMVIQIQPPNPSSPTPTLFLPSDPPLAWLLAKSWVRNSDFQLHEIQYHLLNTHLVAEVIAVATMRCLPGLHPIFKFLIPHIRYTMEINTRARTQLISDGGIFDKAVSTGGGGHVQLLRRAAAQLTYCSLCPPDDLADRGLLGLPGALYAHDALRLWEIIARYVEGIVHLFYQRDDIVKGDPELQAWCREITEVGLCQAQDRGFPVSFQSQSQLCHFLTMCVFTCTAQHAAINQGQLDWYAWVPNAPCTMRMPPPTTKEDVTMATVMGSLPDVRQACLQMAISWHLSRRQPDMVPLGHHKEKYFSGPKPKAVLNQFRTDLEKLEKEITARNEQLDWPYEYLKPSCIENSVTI", "assay": "Selectivity versus 12-LOX", "format": "biochemical"}, "15-LOX2": {"target": "15-LOX2 (Homo sapiens (Human), UniProt O15296)", "sequence (O15296 whole entry)": "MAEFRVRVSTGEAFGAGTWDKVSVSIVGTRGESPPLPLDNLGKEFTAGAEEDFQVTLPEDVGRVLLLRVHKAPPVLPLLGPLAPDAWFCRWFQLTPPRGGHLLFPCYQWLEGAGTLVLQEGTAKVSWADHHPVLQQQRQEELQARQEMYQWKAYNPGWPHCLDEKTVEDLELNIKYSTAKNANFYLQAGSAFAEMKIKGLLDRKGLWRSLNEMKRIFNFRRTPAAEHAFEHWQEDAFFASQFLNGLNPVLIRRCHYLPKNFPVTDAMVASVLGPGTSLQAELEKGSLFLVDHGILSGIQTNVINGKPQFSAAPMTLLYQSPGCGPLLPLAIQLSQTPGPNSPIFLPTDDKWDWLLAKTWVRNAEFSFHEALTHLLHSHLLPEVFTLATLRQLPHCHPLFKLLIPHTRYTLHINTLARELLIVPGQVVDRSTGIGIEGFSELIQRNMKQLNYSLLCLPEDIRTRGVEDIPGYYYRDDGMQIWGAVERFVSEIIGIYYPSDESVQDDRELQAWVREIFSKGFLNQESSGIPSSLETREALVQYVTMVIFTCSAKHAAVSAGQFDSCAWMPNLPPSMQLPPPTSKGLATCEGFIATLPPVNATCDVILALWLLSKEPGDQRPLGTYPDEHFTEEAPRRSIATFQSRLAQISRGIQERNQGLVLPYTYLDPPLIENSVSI", "assay": "Selectivity versus 15-LOX2", "format": "biochemical"}, "5-LOX": {"target": "5-LOX (Homo sapiens (Human), UniProt P09917)", "sequence (P09917 whole entry)": "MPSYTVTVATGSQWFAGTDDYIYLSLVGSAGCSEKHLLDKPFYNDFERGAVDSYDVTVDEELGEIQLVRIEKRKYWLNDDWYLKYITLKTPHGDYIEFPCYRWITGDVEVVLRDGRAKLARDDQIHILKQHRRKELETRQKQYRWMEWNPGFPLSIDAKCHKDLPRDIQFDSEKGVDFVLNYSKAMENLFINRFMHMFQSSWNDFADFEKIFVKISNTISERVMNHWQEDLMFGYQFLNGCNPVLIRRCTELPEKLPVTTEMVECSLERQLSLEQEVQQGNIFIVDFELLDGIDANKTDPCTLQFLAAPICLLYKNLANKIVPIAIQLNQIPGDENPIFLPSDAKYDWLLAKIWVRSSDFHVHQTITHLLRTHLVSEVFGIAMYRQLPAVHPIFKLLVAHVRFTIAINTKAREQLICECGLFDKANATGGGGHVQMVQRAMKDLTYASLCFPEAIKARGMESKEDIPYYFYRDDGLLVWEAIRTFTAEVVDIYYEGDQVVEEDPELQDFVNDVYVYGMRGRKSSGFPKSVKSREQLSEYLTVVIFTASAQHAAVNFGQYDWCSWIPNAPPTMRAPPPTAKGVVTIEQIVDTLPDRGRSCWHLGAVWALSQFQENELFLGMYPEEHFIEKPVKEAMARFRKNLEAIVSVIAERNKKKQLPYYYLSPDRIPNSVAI", "assay": "Selectivity versus 5-LOX", "format": "biochemical"}, "COX-1": {"system": "COX-1", "assay": "Selectivity versus COX-1", "format": "biochemical"}, "COX-2": {"target": "COX-2 (Homo sapiens (Human), UniProt P35354)", "sequence (P35354 18-604)": "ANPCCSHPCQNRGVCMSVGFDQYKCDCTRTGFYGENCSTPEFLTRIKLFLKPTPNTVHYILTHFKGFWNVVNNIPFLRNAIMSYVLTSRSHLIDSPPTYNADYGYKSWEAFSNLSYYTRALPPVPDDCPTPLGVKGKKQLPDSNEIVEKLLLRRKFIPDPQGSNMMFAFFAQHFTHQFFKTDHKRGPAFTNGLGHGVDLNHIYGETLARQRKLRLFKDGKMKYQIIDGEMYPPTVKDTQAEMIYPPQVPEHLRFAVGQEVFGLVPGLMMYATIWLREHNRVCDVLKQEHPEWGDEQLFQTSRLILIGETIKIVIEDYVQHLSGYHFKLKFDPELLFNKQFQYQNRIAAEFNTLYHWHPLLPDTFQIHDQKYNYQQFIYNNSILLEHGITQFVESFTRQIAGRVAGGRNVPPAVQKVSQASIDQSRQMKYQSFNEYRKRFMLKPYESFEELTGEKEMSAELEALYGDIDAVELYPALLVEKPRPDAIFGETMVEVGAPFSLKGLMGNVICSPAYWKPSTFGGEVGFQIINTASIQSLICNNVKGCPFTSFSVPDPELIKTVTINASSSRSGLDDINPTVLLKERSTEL", "assay": "Selectivity versus COX-2", "format": "biochemical"}, "[3]": {"system": "experimental stroke model in mice (MCAO)", "assay": "Mouse stroke model, filament middle cerebral artery occlusion (MCAO), infarct size", "format": "in vivo", "protocol": "Studies were carried out in experimental stroke model in mice, using the filament model of middle cerebral artery occlusion (MCAO). For intraperitoneal delivery, compounds were dissolved in DMSO. A number of exemplified compounds were able to reduce infarct size when given at a dosage of 40 mg/kg.\n40 mg/kg cmpd. 1 were given i.p. at time of reperfusion. Infarct size was measured at 24 hours after 60 minutes MCAO.\nMCAO (Experimental Middle Cerebral Artery Ischemia and Functional Recovery) experiment: 40 mg/kg of compound delivered intraperitoneally 2 h post reperfusion, 60 minutes MCAO, sacrifice at 24 h, infarct size determined by TTC staining."}, "[4]": {"system": "experimental stroke model in mice (MCAO)", "assay": "Long-term outcome after MCAO: Garcia score", "format": "in vivo, mouse", "conditions": "40 mg/kg i.v. 2 hours post reperfusion", "protocol": "(§1) Long-term outcome experiment: 40 mg/kg cmpd. 1 delivered I.V. 2 hours post reperfusion, same as short term, compared to vehicle (10% solutol/90% PEG400). 45 mice operated, and 27 survived, mice were sacrificed on day 30."}, "[5]": {"system": "experimental stroke model in mice (MCAO)", "assay": "Long-term outcome after MCAO: foot fault test", "format": "in vivo, mouse", "conditions": "40 mg/kg i.v. 2 hours post reperfusion", "protocol": "as §1"}, "[6]": {"system": "experimental stroke model in mice (MCAO)", "assay": "Long-term outcome after MCAO: adhesive (tape) removal test", "format": "in vivo, mouse", "conditions": "40 mg/kg i.v. 2 hours post reperfusion", "protocol": "as §1"}, "[7]": {"system": "experimental stroke model in mice (MCAO)", "assay": "Long-term outcome after MCAO: Y maze", "format": "in vivo, mouse", "conditions": "40 mg/kg i.v. 2 hours post reperfusion, versus vehicle", "protocol": "as §1"}}, "data": [{"smiles": "CNc1oc(-c2cc(Cl)cc(Cl)c2Cl)nc1C#N", "note": "[Compound 1, 5-(methylamino)-2-(2,3,5-trichlorophenyl) oxazole-4-carbonitrile]", "values": [{"measurement": "IC50", "setting": "h12/15-LOX", "result": 120, "unit": "nM"}, {"measurement": "Emax", "setting": "h12/15-LOX; h12/15-LOX, read-out: Max % inhibition", "result": 94, "unit": "%"}, {"measurement": "Sol", "setting": "[1]", "result": "+ (“+” < 10 μM)"}, {"measurement": "Extr (EH)", "setting": "[2]; Human liver microsomes", "result": "** (“**” 50-100%)"}, {"measurement": "microsomal CLint", "setting": "[2]; Human liver microsomes", "result": "20 to 100", "unit": "µL/min/mg"}, {"measurement": "Extr (EH)", "setting": "[2]; Mouse liver microsomes", "result": "** (“**” 50-100%)"}, {"measurement": "microsomal CLint", "setting": "[2]; Mouse liver microsomes", "result": "20 to 100", "unit": "µL/min/mg"}, {"measurement": "Extr (EH)", "setting": "[2]; Rat liver microsomes", "result": "* (“*” <50%)"}, {"measurement": "microsomal CLint", "setting": "[2]; Rat liver microsomes", "result": "< 20", "unit": "µL/min/mg"}, {"measurement": "IC50", "setting": "Mouse 12/15-LOX E. coli", "result": 180, "unit": "nM"}, {"measurement": "Mouse 12/15-LOX E. coli % max", "setting": "Mouse 12/15-LOX E. coli", "result": 82, "unit": "%"}, {"measurement": "EC50", "setting": "Rat Primary Neuron", "result": 9500, "unit": "nM"}, {"measurement": "selectivity over 12-LOX", "setting": "12-LOX", "result": "> 400", "unit": "fold"}, {"measurement": "selectivity over 15-LOX2", "setting": "15-LOX2", "result": "> 400", "unit": "fold"}, {"measurement": "selectivity over 5-LOX", "setting": "5-LOX", "result": "> 400", "unit": "fold"}, {"measurement": "selectivity over COX-1", "setting": "COX-1", "result": "> 400", "unit": "fold"}, {"measurement": "selectivity over COX-2", "setting": "COX-2", "result": "> 400", "unit": "fold"}, {"measurement": "infarct size reduction", "setting": "[3]; 20 mg/kg i.v. 2 hours post reperfusion", "result": 25.8, "unit": "%"}, {"measurement": "infarct size reduction", "setting": "[3]; 40 mg/kg i.v. in 10% Solutol/90% PEG400, 2 h after reperfusion, 24 h", "result": 34.1, "unit": "%"}, {"measurement": "infarct size reduction", "setting": "[3]; female mice, 40 mg/kg i.p. at time of reperfusion, 24 h after 60 minutes MCAO", "result": 37.2, "unit": "%"}, {"measurement": "infarct size reduction", "setting": "[3]; male mice, 40 mg/kg i.p. at time of reperfusion, 24 h after 60 minutes MCAO", "result": 33.4, "unit": "%"}, {"measurement": "Garcia score, improvement compared to vehicle treatment", "setting": "[4]; Day 3", "result": 23.8, "unit": "%"}, {"measurement": "Garcia score, improvement compared to vehicle treatment", "setting": "[4]; Week 4", "result": 68.5, "unit": "%"}, {"measurement": "Foot fault test, improvement compared to vehicle treatment", "setting": "[5]; Week 1", "result": 61.7, "unit": "%"}, {"measurement": "Foot fault test, improvement compared to vehicle treatment", "setting": "[5]; Week 4", "result": 77.0, "unit": "%"}, {"measurement": "Adhesive (tape) removal test, improvement compared to vehicle treatment", "setting": "[6]; Week 1", "result": 65.6, "unit": "%"}, {"measurement": "Adhesive (tape) removal test, improvement compared to vehicle treatment", "setting": "[6]; Week 4", "result": 93.3, "unit": "%"}, {"measurement": "Y maze % alternation", "setting": "[7]", "result": "no significant differences"}, {"measurement": "Y maze entry number", "setting": "[7]", "result": "no difference between treatment groups"}]}]}
